In brackets after ≈: the same amount, converted by molar mass.
Columns and labels:
Experiment in all cases: MIC, antimicrobial activity
Assay type in all cases: cell-based
[1] = system: Pseudomonas aeruginosa TB-121; conditions: for Minimum Inhibitory Concentration (MIC): Pseudomonas aeruginosa TB-121, tobramycin resistant strain; for MIC: Pseudomonas aeruginosa, TB121, Pseudomonas aeruginosa TB-121, tobramycin resistant strain, read-out: Minimum Inhibitory Concentration (MIC)
[2] = system: Pseudomonas aeriginosa TB-151; conditions: for Minimum Inhibitory Concentration (MIC): Pseudomonas aeriginosa TB-151, tobramycin resistant strain; for MIC: Pseudomonas, TB151, read-out: Minimum Inhibitory Concentration (MIC), Pseudomonas aeriginosa TB-151, tobramycin resistant strain
[3] = system: Staphylococcus epidermidis TB-775; conditions: for MIC: Staphylococcus epidermidis, TB775, Staphylococcus epidermidis TB-775, tobramycin resistant strain, read-out: Minimum Inhibitory Concentration (MIC); for Minimum Inhibitory Concentration (MIC): Staphylococcus epidermidis TB-775, tobramycin resistant strain
[4] = system: Proteus vulgaris TB-615; conditions: for Minimum Inhibitory Concentration (MIC): Proteus vulgaris TB-615, tobramycin resistant strain; for MIC: Proteus vulgaris, TB615, Proteus vulgaris TB-615, tobramycin resistant strain, read-out: Minimum Inhibitory Concentration (MIC)

| Structure (SMILES) | Minimum Inhibitory Concentration (MIC) [1] [µg/mL] | Minimum Inhibitory Concentration (MIC) [2] [µg/mL] | MIC [3] [µg/mL] | Minimum Inhibitory Concentration (MIC) [4] [µg/mL] | MIC [1] [µg/mL] | MIC [2] [µg/mL] | MIC [4] [µg/mL] | Minimum Inhibitory Concentration (MIC) [3] [µg/mL] |
| --- | --- | --- | --- | --- | --- | --- | --- | --- |
| NC[C@H]1O[C@H](O[C@H]2[C@H](O)[C@@H](O[C@H]3O[C@H](CO)[C@@H](O)[C@H](N)[C@H]3O)[C@H](NC(=O)C(O)C3CCCN3)C[C@@H]2N)[C@H](N)C[C@@H]1O (some centres unmarked) [(5), 1-N-[2-hydroxy-2-(pyrrolidin-2-yl)acetyl]tobramycin] | 25.0 | 100.0 | 100 (≈ 168 µM) | 100.0 |  |  |  |  |
| NC[C@H]1O[C@H](O[C@H]2[C@H](O)[C@@H](O[C@H]3O[C@H](CO)[C@@H](O)[C@H](N)[C@H]3O)[C@H](NC(=O)C(O)C3CCNC3)C[C@@H]2N)[C@H](N)C[C@@H]1O (some centres unmarked) [(1), 1-N-[2-hydroxy-2-(pyrrolidin-3-yl)acetyl]tobramycin] |  |  | 6.2 (≈ 10.4 µM) |  | 6.2 (≈ 10.4 µM) | 6.2 (≈ 10.4 µM) | 12.5 (≈ 21 µM) |  |
| NC[C@H]1O[C@H](O[C@H]2[C@H](O)[C@@H](O[C@H]3O[C@H](CO)[C@@H](O)[C@H](N)[C@H]3O)[C@H](NC(=O)C(O)C3CNCCN3)C[C@@H]2N)[C@H](N)C[C@@H]1O (single isomer, unassigned) [(9), 1-N-[2-hydroxy-2-(piperazin-2-yl)acetyl]tobramycin] | 12.5 | 25.0 |  | 50.0 |  |  |  | 50.0 |
| NC[C@H]1O[C@H](O[C@H]2[C@H](O)[C@@H](O[C@H]3O[C@H](CO)[C@@H](O)[C@H](N)[C@H]3O)[C@H](N)C[C@@H]2N)[C@H](N)C[C@@H]1O [TOB, tobramycin, reference compound] |  |  |  |  |  | 100 (≈ 214 µM) | 25 (≈ 53.5 µM) |  |
| NC[C@H]1O[C@H](O[C@H]2[C@H](O)[C@@H](O[C@H]3O[C@H](CO)[C@@H](O)[C@H](N)[C@H]3O)[C@H](NC(=O)C(O)C3CNC3)C[C@@H]2N)[C@H](N)C[C@@H]1O (some centres unmarked) [(3), 1-N-[2-hydroxy-2-(azetidin-3-yl)acetyl]tobramycin] |  |  | 6.2 (≈ 10.7 µM) |  | 3.1 (≈ 5.34 µM) | 3.1 (≈ 5.34 µM) | 12.5 (≈ 21.5 µM) |  |
| NC[C@H]1O[C@H](O[C@H]2[C@H](O)[C@@H](O[C@H]3O[C@H](CO)[C@@H](O)[C@H](N)[C@H]3O)[C@H](NC(=O)C(O)C3CCCN3)C[C@@H]2N)[C@H](N)C[C@@H]1O (some centres unmarked) [(6), 1-N-[2-hydroxy-2-(pyrrolidin-2-yl)acetyl]tobramycin] | 6.2 | 12.5 |  | 25.0 |  |  |  | 50.0 |
| NC[C@H]1O[C@H](O[C@H]2[C@H](O)[C@@H](O[C@H]3O[C@H](CO)[C@@H](O)[C@H](N)[C@H]3O)[C@H](NC(=O)C(O)C3CCCN3)C[C@@H]2N)[C@H](N)C[C@@H]1O (some centres unmarked) [(7), 1-N-[2-hydroxy-2-(pyrrolidin-2-yl)acetyl]tobramycin] | 100.0 | 50.0 |  | > 100.0 |  |  |  | > 100.0 |
| NC[C@H]1O[C@H](O[C@H]2[C@H](O)[C@@H](O[C@H]3O[C@H](CO)[C@@H](O)[C@H](N)[C@H]3O)[C@H](NC(=O)C(O)C3CCN3)C[C@@H]2N)[C@H](N)C[C@@H]1O (some centres unmarked) [(2), 1-N-[2-hydroxy-2-(azetidin-2-yl)acetyl]tobramycin] |  |  | 100 (≈ 172 µM) |  | 12.5 (≈ 21.5 µM) | 12.5 (≈ 21.5 µM) | > 100 |  |
| NC[C@H]1O[C@H](O[C@H]2[C@H](O)[C@@H](O[C@H]3O[C@H](CO)[C@@H](O)[C@H](N)[C@H]3O)[C@H](NC(=O)C(O)C3CCCNC3)C[C@@H]2N)[C@H](N)C[C@@H]1O (some centres unmarked) [(4), 1-N-[2-hydroxy-2-(piperidin-3-yl)acetyl]tobramycin] |  |  | 25 (≈ 41.1 µM) |  | 25 (≈ 41.1 µM) | 25 (≈ 41.1 µM) | 25 (≈ 41.1 µM) |  |
| NC[C@H]1O[C@H](O[C@H]2[C@H](O)[C@@H](O[C@H]3O[C@H](CO)[C@@H](O)[C@H](N)[C@H]3O)[C@H](NC(=O)C(O)C3CNCCN3)C[C@@H]2N)[C@H](N)C[C@@H]1O (single isomer, unassigned) [(8), 1-N-[2-hydroxy-2-(piperazin-2-yl)acetyl]tobramycin] | 6.2 | 6.2 | 25 (≈ 41 µM) | 12.5 |  |  |  |  |

Source: patent US4200628A, “Novel aminoglycoside derivatives” (Shionogi & Co., Ltd., priority 1977, dated 1980)
